Measurements reported in patent US12522590B2, “Brefeldin a derivatives, preparation method and use thereof” (OCEAN UNIVERSITY OF CHINA, priority 2019, dated 2026).
In brackets after ≈: the same amount, converted by molar mass. Like-named read-outs stand apart in the source and are kept apart here.

Tests used:
[1] = Solubility test (shake 37° C., 24 h, HPLC); type: physicochemical; details: thermodynamic from solid, x ± s
Procedure: The term “solubility” refers to the mass of solute dissolved when a solid substance reaches saturation state in 100 g solvent at a certain temperature. Solubility test refer to the following references: ZHU Shang-bin, et al. Preparation, characterization, and physicochemical properties of arbutin phospholipid complex[J]. Chinese Traditional and Herbal Drugs. 2020, 1-10.
Methods: Excess BFA and the compounds disclosed herein were added to 10 mL of three solvents, methanol, acetone and 5% DMSO+95% H2O, respectively, and shaken on a shaker at 37° C. at 100 r/min for 24 h. After 24 h, the samples were centrifuged at 15 000 r/min for 15 min to remove the undissolved compounds. The supernatant was filtered using a 0.45 μm membrane filter. The supernatant was appropriately diluted with methanol and contents of the compounds were determined by HPLC method to calculate the solubility.

[2] = tested on: Human cervical cancer cells Hela; test: Cell proliferation assay (CCK-8); type: cell-based; details: Homo sapiens, 72 h
Text: (§1) CCK-8 method: The CCK-8 method is a highly sensitive, non-radioactive colorimetric assay for the determination of the number of viable cells in cell proliferation or cytotoxicity assays. The orange formazan dye produced by the bioreduction of CCK-8 by intracellular dehydrogenase is soluble in the cell culture medium, and the amount of formazan dye produced is proportional to the number of living cells. The kit used in this method is the tetrazolium salt-WST-8 (2-(2-methoxy-4-nitrophenyl)-3-(4-nitrophenyl)-5-(2,4-disulfophenyl)-2H-tetrazolium monosodium salt) developed by Dojindo Chemical Research Institute (Dojindo), which is capable of being reduced to a water-soluble formazan dye in the presence of the electronic carrier 1-Methoxy PMS.
(§2) Human cervical cancer cells Hela, pancreatic cancer cells PANC-1, esophageal cancer cells Eca-109, human leukemia cells K562, human lung cancer cells A549, human liver cancer cells HepG2, human gastric cancer cells MKN-45, human breast cancer cells MCF7 were cultured in DMEM medium containing 10% FBS (fetal bovine serum), 100 U/mL penicillin and 100 μg/ml streptomycin. Hepatocellular carcinoma cells Bel-7402 were cultured in RPMI-1640 medium containing 10% FBS (fetal bovine serum), 100 U/ml penicillin and 100 μg/ml streptomycin. All cells were placed in a cell culture incubator at 37° C. with 5% CO2. Cells fluid was changed every 3-5 days, and after 80% cell fusion, trypsin digestion and passaging were performed to keep the cells in good logarithmic growth phase.
(§3) All the samples to be tested were dissolved in DMSO.
(§4) Cells in logarithmic growth phase were inoculated in 96-well plates with 5000 cells/well respectively, and after 24 h of incubation, samples were added (final concentrations as shown in the table), and biplicate wells were set up for each sample. The amount of solvent of DMSO was not higher than 2‰. After 72 h, 10 μL of CCK-8 solution was added to each well and incubated for 1.5˜3 h at 37° C. The OD value at 450 nm was measured on an plate reader. Inhibition rate (%)=(1−[(OD450 dosed well−OD450 blank well)/(OD450 control well−OD450 blank well)])×100%
(§5) The fitted IC50 values were calculated using the log (inhibitor) vs. response—Variable slop analysis method in GraphPad Prism software.

[3] = tested on: human breast cancer cells MCF7; test: Cell proliferation assay (CCK-8); type: cell-based; details: Homo sapiens, MCF7, 72 h
Text: as §1, §2, §3, §4, §5

[4] = tested on: human gastric cancer cells MKN-45; test: Cell proliferation assay (CCK-8); type: cell-based; details: Homo sapiens, MKN-45, 72 h
Text: as §1, §2, §3, §4, §5

[5] = tested on: human leukemia cells K562; test: Cell proliferation assay (CCK-8); type: cell-based; details: Homo sapiens, K562, 72 h
Text: as §1, §2, §3, §4, §5

[6] = tested on: human liver cancer cells HepG2; test: Cell proliferation assay (CCK-8); type: cell-based; details: Homo sapiens, HepG2, 72 h
Text: as §1, §2, §3, §4, §5

[7] = tested on: human lung cancer cells A549; test: Cell proliferation assay (CCK-8); type: cell-based; details: Homo sapiens, A549, 72 h
Text: as §1, §2, §3, §4, §5

[8] = tested on: esophageal cancer cells Eca-109; test: Cell proliferation assay (CCK-8); type: cell-based, human; details: Homo sapiens, Eca-109, 72 h
Text: as §1, §2, §3, §4, §5

[9] = tested on: pancreatic cancer cells PANC-1; test: Cell proliferation assay (CCK-8); type: cell-based, human; details: Homo sapiens, PANC-1, 72 h
Text: as §1, §2, §3, §4, §5

[10] = Pharmacokinetic evaluation (plasma BFA by LC/MS/MS); type: in vivo, SD rats; details: rat, in vivo, 40 mg/kg
Procedure: SD rats were weighed after an overnight fasting of 15 hours and randomly grouped according to weights. The appropriate amount of the compound was accurately weighed, and a final volume of 5% DMSO, 10% Solutol, and 85% Saline was added and vortexed or sonicated to make a thorough mixing to provide a 4 mg/mL solution for intravenous administration (iv.). Venous blood was taken at the time points of 0, 0.083 (iv. group only), 0.25, 0.5, 1.0, 2.0, 5.0, 7.0 and 24 h, via jugular vein or other suitable means, with approximately 0.20 mL of each sample collected, anticoagulated with sodium heparin (with 6.25 μL of 200 mM DDVP/tube added), and placed on ice after collection. The plasma was separated by centrifugation within 2 hours (centrifugal force 6800 g, 6 min, 2-8° C.). The collected plasma samples were stored in a −70° C. refrigerator before analysis, and the remaining plasma samples after analysis were kept stored at −20° C. or −70° C. until LC/MS/MS analysis was performed. The accuracy of QC samples was evaluated while analyzing the samples, and more than 66% of the QC samples were required to have an accuracy between 80-120%. When plasma drug concentration-time curves were plotted, BLQ were recorded as 0. For the calculation of pharmacokinetic parameters, the concentration before dosing was counted as 0; BLQ before Cmax (including “No peak”) was counted as 0; BLQ after Cmax (including “No peak”) was not included in the calculation. Pharmacokinetic parameters such as AUC(0-t), T1/2, Cmax, Tmax and MRT were calculated according to the blood concentration data of BFA at different time points using WinNonlin.

[11] = aqueous with cosolvent or surfactant or cyclodextrin, 5% DMSO + 95% H2O, n = 3, read-out: Solubility, 5% DMSO + 95% H2O
[12] = organic solvent or mixture, acetone, n = 3, read-out: Solubility, Acetone
[13] = organic solvent or mixture, methanol, n = 3, read-out: Solubility, Methanol

solubility at 24 h [1, 11]	solubility at 24 h [1, 12]	solubility at 24 h [1, 13]	IC50 [2]	IC50 [3]	IC50 [4]	IC50 [5]	IC50 [6]	IC50 [7]	IC50 [8]	IC50 [9]	Blood concentrations detected within 1 h [10]	Drug in blood after 1 h [10]	SMILES
2720 ± 330 µg/mL	63800 ± 3530 µg/mL (≈ 147 mM)	69400 ± 3510 µg/mL (≈ 160 mM)	< 0.1 µM	0.1 to 1 µM	0.1 to 1 µM	0.1 to 1 µM	0.1 to 1 µM	0.1 to 1 µM	0.1 to 1 µM	< 0.1 µM			C[C@H]1CCC/C=C/[C@@H]2C[C@H](OC(=O)OCc3cncc(F)c3)C[C@H]2[C@H](O)/C=C/C(=O)O1 [Compound 4, BFA-7-(5-fluoro-pyridine-3-ylmethyl)carbonate]
2480 ± 1550 µg/mL	69400 ± 2230 µg/mL (≈ 167 mM)	73300 ± 3520 µg/mL (≈ 176 mM)	< 0.1 µM	0.1 to 1 µM	0.1 to 1 µM	0.1 to 1 µM	0.1 to 1 µM	0.1 to 1 µM	0.1 to 1 µM	0.1 to 1 µM			C[C@H]1CCC/C=C/[C@@H]2C[C@H](OC(=O)OCc3ccccn3)C[C@H]2[C@H](O)/C=C/C(=O)O1 [Compound 2, BFA-7-(pyridine-2-ylmethyl)carbonate]
			0.1 to 1 µM	1 to 10 µM	0.1 to 1 µM	1 to 10 µM	> 10 µM	0.1 to 1 µM	0.1 to 1 µM	< 0.1 µM			COc1cccc2c1C(=O)c1c(O)c3c(c(O)c1C2=O)C[C@@](O)(C(=O)CO)C[C@@H]3O[C@H]1C[C@H](N)[C@H](O)[C@H](C)O1 [Adriamycin, reference compound]
2700 ± 770 µg/mL	68800 ± 2530 µg/mL (≈ 160 mM)	69000 ± 1810 µg/mL (≈ 161 mM)	< 0.1 µM	0.1 to 1 µM	0.1 to 1 µM	0.1 to 1 µM	0.1 to 1 µM	< 0.1 µM	0.1 to 1 µM	0.1 to 1 µM			C[C@H]1CCC/C=C/[C@@H]2C[C@H](OC(=O)OCCc3cccnc3)C[C@H]2[C@H](O)/C=C/C(=O)O1 [Compound 9, BFA-7-(pyridine-3-ylethyl)carbonate]
510 ± 130 µg/mL	21200 ± 1120 µg/mL (≈ 38.4 mM)	20400 ± 1410 µg/mL (≈ 37.1 mM)	1 to 10 µM	0.1 to 1 µM	1 to 10 µM	0.1 to 1 µM	1 to 10 µM	0.1 to 1 µM	1 to 10 µM	1 to 10 µM	low blood concentrations	basically undetectable	C[C@H]1CCC/C=C/[C@@H]2C[C@H](OC(=O)OCc3cccnc3)C[C@H]2[C@H](OC(=O)OCc2cccnc2)/C=C/C(=O)O1 [Compound D, reference compound]
			1 to 10 µM	0.1 to 1 µM	1 to 10 µM	0.1 to 1 µM	0.1 to 1 µM	0.1 to 1 µM	0.1 to 1 µM	0.1 to 1 µM			C[C@H]1CCC/C=C/[C@@H]2C[C@H](OC(=O)OCc3ccc(N4CCCCC4)nc3)C[C@H]2[C@H](O)/C=C/C(=O)O1 [Compound 8]
2650 ± 1600 µg/mL	69600 ± 1740 µg/mL (≈ 168 mM)	70300 ± 4350 µg/mL (≈ 169 mM)	0.1 to 1 µM	< 0.1 µM	< 0.1 µM	0.1 to 1 µM	0.1 to 1 µM	0.1 to 1 µM	0.1 to 1 µM	0.1 to 1 µM			C[C@H]1CCC/C=C/[C@@H]2C[C@H](OC(=O)OCc3ccncc3)C[C@H]2[C@H](O)/C=C/C(=O)O1 [Compound 3, BFA-7-(pyridine-4-ylmethyl)carbonate]
			0.1 to 1 µM	0.1 to 1 µM	0.1 to 1 µM	0.1 to 1 µM	< 0.1 µM	0.1 to 1 µM	0.1 to 1 µM	0.1 to 1 µM			C[C@H]1CCC/C=C/[C@@H]2C[C@H](OC(=O)OCc3cncc4ccccc34)C[C@H]2[C@H](O)/C=C/C(=O)O1 [Compound 12]
			0.1 to 1 µM	0.1 to 1 µM	0.1 to 1 µM	0.1 to 1 µM	0.1 to 1 µM	0.1 to 1 µM	< 0.1 µM	0.1 to 1 µM			C[C@H]1CCC/C=C/[C@@H]2C[C@H](OC(=O)OCCCc3cccnc3)C[C@H]2[C@H](O)/C=C/C(=O)O1 [Compound 10]
			0.1 to 1 µM	0.1 to 1 µM	< 0.1 µM	0.1 to 1 µM	0.1 to 1 µM	0.1 to 1 µM	< 0.1 µM	0.1 to 1 µM			C[C@H]1CCC/C=C/[C@@H]2C[C@H](OC(=O)OCc3ccc(N)nc3)C[C@H]2[C@H](O)/C=C/C(=O)O1 [Compound 5]

SMILES	solubility at 24 h [1, 11]	solubility at 24 h [1, 12]	solubility at 24 h [1, 13]	IC50 [2]	IC50 [3]	IC50 [4]	IC50 [5]	IC50 [6]	IC50 [7]	IC50 [8]	IC50 [9]	Blood concentrations detected within 1 h [10]	Drug in blood after 1 h [10]
C[C@H]1CCC/C=C/[C@@H]2C[C@H](OC(=O)OCc3cccc(F)c3)C[C@H]2[C@H](O)/C=C/C(=O)O1 [Compound B, reference compound]	260 ± 160 µg/mL	9550 ± 1230 µg/mL (≈ 22.1 mM)	9760 ± 1210 µg/mL (≈ 22.6 mM)	1 to 10 µM	0.1 to 1 µM	1 to 10 µM	1 to 10 µM	0.1 to 1 µM	1 to 10 µM	0.1 to 1 µM	0.1 to 1 µM		
COC(=O)O[C@@H]1C[C@H]2[C@H](O)/C=C/C(=O)O[C@@H](C)CCC/C=C/[C@@H]2C1 [Compound C, reference compound]	250 ± 230 µg/mL	9260 ± 1130 µg/mL (≈ 27.4 mM)	9440 ± 1510 µg/mL (≈ 27.9 mM)	1 to 10 µM	0.1 to 1 µM	1 to 10 µM	0.1 to 1 µM	0.1 to 1 µM	0.1 to 1 µM	1 to 10 µM	0.1 to 1 µM		
Cc1ccc(COC(=O)O[C@@H]2C[C@H]3[C@H](O)/C=C/C(=O)O[C@@H](C)CCC/C=C/[C@@H]3C2)cn1 [Compound 7]				0.1 to 1 µM	0.1 to 1 µM	0.1 to 1 µM	0.1 to 1 µM	0.1 to 1 µM	0.1 to 1 µM	0.1 to 1 µM	0.1 to 1 µM		
C[C@H]1CCC/C=C/[C@@H]2C[C@H](OC(=O)OCCc3ccccc3)C[C@H]2[C@H](O)/C=C/C(=O)O1 [Compound A, reference compound]	250 ± 130 µg/mL	9360 ± 1260 µg/mL (≈ 21.8 mM)	9930 ± 1210 µg/mL (≈ 23.2 mM)	1 to 10 µM	1 to 10 µM	1 to 10 µM	0.1 to 1 µM	0.1 to 1 µM	0.1 to 1 µM	0.1 to 1 µM	1 to 10 µM		
